How the values were obtained:
barnyardgrass [1] = experiment: Test B pre-/postemergence herbicide test; type: in vivo, Echinochloa crus-galli
How it was run: (§1)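 Flooded paddy rice and barnyardgrass were treated at the 2-leaf stage; upland plantings received compound either on sown seed or on 1- to 4-leaf seedlings. All were kept 13–15 days in a greenhouse and scored visually, 0–100, relative to untreated plants.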

Surinam grass = experiment: Test B pre-/postemergence herbicide test; type: in vivo, Urochloa decumbens
How it was run: (§2)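 Seeds were planted and treated preemergence with compounds formulated in a non-phytotoxic solvent mixture containing surfactant, while plants at the 1- to 4-leaf stage (2 to 18 cm) received postemergence sprays. Flooded paddy plants were grown to the 2-leaf stage. After 13 to 15 days in a greenhouse, injury was visually rated 0–100 against untreated controls.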

cocklebur = experiment: Test B pre-/postemergence herbicide test; type: in vivo, Xanthium strumarium
How it was run: as §1

corn = experiment: Test B pre-/postemergence herbicide test; type: in vivo, Zea mays
How it was run: as §2

large crabgrass = experiment: Test B pre-/postemergence herbicide test; type: in vivo, Digitaria sanguinalis
How it was run: as §2

giant foxtail = experiment: Test B pre-/postemergence herbicide test; type: in vivo, Setaria faberi
How it was run: as §2

lambsquarters = experiment: Test B pre-/postemergence herbicide test; type: in vivo, Chenopodium album
How it was run: as §2

morningglory = experiment: Test B pre-/postemergence herbicide test; type: in vivo, Ipomoea coccinea
How it was run: as §1

pigweed = experiment: Test B pre-/postemergence herbicide test; type: in vivo, Amaranthus retroflexus
How it was run: as §2

blackgrass = experiment: Test B postemergence herbicide test; type: in vivo, Alopecurus myosuroides; settings: scale 0 (no effect) to 100 (complete control); for Blackgrass plant response rating: 125 g ai/ha; for Plant response rating, Blackgrass: 500 g ai/ha, visual rating after 13 to 15 days
How it was run: (§3)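 After treating 2-leaf paddy plants or 2–18 cm postemergence plants (1 to 4 leaves) with formulated chemical, researchers kept them in a greenhouse for 13–15 days. Effects were judged visually versus controls: 0 indicates none, 100 total control.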

wheat = experiment: Test B postemergence herbicide test; type: in vivo, Triticum aestivum; design: key to Wheat plant response rating: 0 = no effect, 100 = complete control; settings: scale 0 (no effect) to 100 (complete control); for Plant response rating, Wheat: Postemergence, 500 g ai/ha, visual rating after 13 to 15 days
How it was run: (§4)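 Formulated test chemicals went onto postemergence plants measuring 2 to 18 cm, at one to four leaves. For the paddy assay, species had reached two leaves. Scoring took place 13–15 days later by eye, relative to untreated plants, using 0 for no effect up to 100 for full control.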

wild oat = experiment: Test B postemergence herbicide test; type: in vivo, Avena fatua; settings: scale 0 (no effect) to 100 (complete control); for Oat, Wild plant response rating: 125 g ai/ha; for Plant response rating, Oat, Wild: 500 g ai/ha, visual rating after 13 to 15 days
How it was run: as §4

rice = experiment: Test B flooded paddy test; type: in vivo, Oryza sativa; settings: 1000 g ai/ha, visual rating, scale 0 to 100 (0 no effect, 100 complete control), 13 to 15 days
How it was run: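 Visual ratings, 0 (no effect) to 100 (complete control), made versus controls after 13–15 d greenhouse. Paddy plants treated at 2-leaf stage; postemergence plants at 1- to 4-leaf stage, 2–18 cm tall.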

[2] = system: small flower umbrella sedge; experiment: Test B flooded paddy test; type: in vivo, Cyperus difformis; settings: 1000 g ai/ha, visual rating, scale 0 to 100 (0 no effect, 100 complete control), 13 to 15 days
How it was run: as §3

ducksalad = experiment: Test B flooded paddy test; type: in vivo, Heteranthera limosa; settings: 1000 g ai/ha, visual rating, scale 0 to 100 (0 no effect, 100 complete control), 13 to 15 days
How it was run: as §3

barnyardgrass [3] = experiment: Test B flooded paddy test; type: in vivo, Echinochloa crus-galli; settings: 1000 g ai/ha, visual rating, scale 0 to 100 (0 no effect, 100 complete control), 13 to 15 days
How it was run: as §3

[4] = Postemergence, 125 g ai/ha, scale 0 (no effect) to 100 (complete control)
[5] = Postemergence, 500 g ai/ha, visual rating after 13 to 15 days, scale 0 (no effect) to 100 (complete control)
[6] = Preemergence, 500 g ai/ha, scale 0 to 100
[7] = preemergence, 125 g ai/ha, 0 to 100 scale, 0 is no effect, 100 is complete control
[8] = postemergence, 125 g ai/ha, visual rating, scale 0 (no effect) to 100 (complete control)

## C=CCNC(=O)c1cccc(NC(=O)c2cc(C(C)(C)C)nn2CC)c1 [Compound 46]
Barnyardgrass [1]; [4]
  Barnyardgrass plant response rating: 10
Barnyardgrass [1]; [5]
  Plant response rating, Barnyardgrass: 50
Barnyardgrass [1]; [6]
  Barnyardgrass plant response rating: 100
Surinam grass; [5]
  Plant response rating, Surinam Grass: 40
Surinam grass; [6]
  Surinam Grass plant response rating: 70
Surinam grass; [7]
  Plant response rating, Surinam Grass: 20
cocklebur; [4]
  Cocklebur plant response rating: 30
cocklebur; [5]
  Plant response rating, Cocklebur: 90
cocklebur; [6]
  Cocklebur plant response rating: 30
corn; [4]
  Corn plant response rating: 20
corn; [5]
  Plant response rating, Corn: 30
corn; [6]
  Corn plant response rating: 10
Large crabgrass; [4]
  Crabgrass, Large plant response rating: 30
Large crabgrass; [5]
  Plant response rating, Crabgrass, Large: 90
Large crabgrass; [6]
  Crabgrass, Large plant response rating: 100
Giant foxtail; [4]
  Foxtail, Giant plant response rating: 30
Giant foxtail; [5]
  Plant response rating, Foxtail, Giant: 40
Giant foxtail; [6]
  Foxtail, Giant plant response rating: 100
Giant foxtail; [7]
  Plant response rating, Foxtail, Giant: 60
lambsquarters; [4]
  Lambsquarters plant response rating: 80
lambsquarters; [5]
  Plant response rating, Lambsquarters: 90
lambsquarters; [6]
  Lambsquarters plant response rating: 100
lambsquarters; [7]
  Plant response rating, Lambsquarters: 100
morningglory; [4]
  Morningglory plant response rating: 0
morningglory; [5]
  Plant response rating, Morningglory: 90
morningglory; [6]
  Morningglory plant response rating: 20
morningglory; [7]
  Plant response rating, Morningglory: 10
pigweed; [5]
  Plant response rating, Pigweed: 90
pigweed; [6]
  Pigweed plant response rating: 100
pigweed; [7]
  Plant response rating, Pigweed: 100
blackgrass; Postemergence
  Blackgrass plant response rating: 10
  Plant response rating, Blackgrass: 20
wheat
  Plant response rating, Wheat: 30
Wild oat; Postemergence
  Oat, Wild plant response rating: 0
  Plant response rating, Oat, Wild: 10
rice
  Rice plant response rating: 70
[2]
  Sedge, Umbrella plant response rating: 80
ducksalad
  Ducksalad plant response rating: 90
Barnyardgrass [3]
  Barnyardgrass plant response rating: 90

## C#CCNC(=O)c1cccc(NC(=O)c2cc(C(C)(C)C)nn2CC)c1 [Compound 47]
Barnyardgrass [1]; [4]
  Barnyardgrass plant response rating: 20
Barnyardgrass [1]; [5]
  Plant response rating, Barnyardgrass: 40
Barnyardgrass [1]; [6]
  Barnyardgrass plant response rating: 90
Surinam grass; [5]
  Plant response rating, Surinam Grass: 40
Surinam grass; [6]
  Surinam Grass plant response rating: 70
Surinam grass; [7]
  Plant response rating, Surinam Grass: 20
cocklebur; [4]
  Cocklebur plant response rating: 10
cocklebur; [5]
  Plant response rating, Cocklebur: 100
cocklebur; [6]
  Cocklebur plant response rating: 40
corn; [4]
  Corn plant response rating: 10
corn; [5]
  Plant response rating, Corn: 30
corn; [6]
  Corn plant response rating: 10
Large crabgrass; [4]
  Crabgrass, Large plant response rating: 10
Large crabgrass; [5]
  Plant response rating, Crabgrass, Large: 70
Large crabgrass; [6]
  Crabgrass, Large plant response rating: 100
Giant foxtail; [4]
  Foxtail, Giant plant response rating: 30
Giant foxtail; [5]
  Plant response rating, Foxtail, Giant: 30
Giant foxtail; [6]
  Foxtail, Giant plant response rating: 90
Giant foxtail; [7]
  Plant response rating, Foxtail, Giant: 40
lambsquarters; [4]
  Lambsquarters plant response rating: 80
lambsquarters; [5]
  Plant response rating, Lambsquarters: 90
lambsquarters; [6]
  Lambsquarters plant response rating: 100
lambsquarters; [7]
  Plant response rating, Lambsquarters: 100
morningglory; [4]
  Morningglory plant response rating: 30
morningglory; [5]
  Plant response rating, Morningglory: 100
morningglory; [6]
  Morningglory plant response rating: 30
morningglory; [7]
  Plant response rating, Morningglory: 20
pigweed; [5]
  Plant response rating, Pigweed: 100
pigweed; [6]
  Pigweed plant response rating: 100
pigweed; [7]
  Plant response rating, Pigweed: 100
blackgrass; Postemergence
  Blackgrass plant response rating: 10
  Plant response rating, Blackgrass: 10
wheat
  Plant response rating, Wheat: 30
Wild oat; Postemergence
  Oat, Wild plant response rating: 10
  Plant response rating, Oat, Wild: 30
rice
  Rice plant response rating: 70
[2]
  Sedge, Umbrella plant response rating: 80
ducksalad
  Ducksalad plant response rating: 80
Barnyardgrass [3]
  Barnyardgrass plant response rating: 90

## CCN(C)C(=O)c1cccc(NC(=O)c2cc(C(C)(C)C)nn2CC)c1 [Compound 48]
Barnyardgrass [1]; [4]
  Barnyardgrass plant response rating: 40
Barnyardgrass [1]; [5]
  Plant response rating, Barnyardgrass: 60
Barnyardgrass [1]; [6]
  Barnyardgrass plant response rating: 90
Surinam grass; [5]
  Plant response rating, Surinam Grass: 50
Surinam grass; [6]
  Surinam Grass plant response rating: 80
Surinam grass; [7]
  Plant response rating, Surinam Grass: 10
cocklebur; [4]
  Cocklebur plant response rating: 0
cocklebur; [5]
  Plant response rating, Cocklebur: 70
cocklebur; [6]
  Cocklebur plant response rating: 50
corn; [4]
  Corn plant response rating: 0
corn; [5]
  Plant response rating, Corn: 30
corn; [6]
  Corn plant response rating: 0
Large crabgrass; [4]
  Crabgrass, Large plant response rating: 10
Large crabgrass; [5]
  Plant response rating, Crabgrass, Large: 20
Large crabgrass; [6]
  Crabgrass, Large plant response rating: 80
Giant foxtail; [4]
  Foxtail, Giant plant response rating: 20
Giant foxtail; [5]
  Plant response rating, Foxtail, Giant: 30
Giant foxtail; [6]
  Foxtail, Giant plant response rating: 90
Giant foxtail; [7]
  Plant response rating, Foxtail, Giant: 70
lambsquarters; [4]
  Lambsquarters plant response rating: 60
lambsquarters; [5]
  Plant response rating, Lambsquarters: 90
lambsquarters; [6]
  Lambsquarters plant response rating: 90
lambsquarters; [7]
  Plant response rating, Lambsquarters: 90
morningglory; [4]
  Morningglory plant response rating: 0
morningglory; [5]
  Plant response rating, Morningglory: 50
morningglory; [6]
  Morningglory plant response rating: 40
morningglory; [7]
  Plant response rating, Morningglory: 10
pigweed; [5]
  Plant response rating, Pigweed: 70
pigweed; [6]
  Pigweed plant response rating: 100
pigweed; [7]
  Plant response rating, Pigweed: 100
blackgrass; Postemergence
  Blackgrass plant response rating: 0
  Plant response rating, Blackgrass: 10
wheat
  Plant response rating, Wheat: 20
Wild oat; Postemergence
  Oat, Wild plant response rating: 10
  Plant response rating, Oat, Wild: 30
rice
  Rice plant response rating: 80
[2]
  Sedge, Umbrella plant response rating: 80
ducksalad
  Ducksalad plant response rating: 80
Barnyardgrass [3]
  Barnyardgrass plant response rating: 80

## C#CCn1nc(C(C)(C)C)cc1C(=O)Nc1cccc(C(=O)NCC)c1 [Compound 50]
Barnyardgrass [1]; [5]
  Plant response rating, Barnyardgrass: 70
Barnyardgrass [1]; [6]
  Barnyardgrass plant response rating: 80
Barnyardgrass [1]; [8]
  Barnyardgrass plant response rating: 50
Barnyardgrass [1]; [7]
  Plant response rating, Barnyardgrass: 40
Surinam grass; [5]
  Plant response rating, Surinam Grass: 40
Surinam grass; [6]
  Surinam Grass plant response rating: 50
Surinam grass; [8]
  Surinam Grass plant response rating: 30
Surinam grass; [7]
  Plant response rating, Surinam Grass: 20
cocklebur; [5]
  Plant response rating, Cocklebur: 90
cocklebur; [6]
  Cocklebur plant response rating: 0
cocklebur; [8]
  Cocklebur plant response rating: 90
cocklebur; [7]
  Plant response rating, Cocklebur: 0
corn; [5]
  Plant response rating, Corn: 40
corn; [6]
  Corn plant response rating: 10
corn; [8]
  Corn plant response rating: 30
corn; [7]
  Plant response rating, Corn: 0
Large crabgrass; [5]
  Plant response rating, Crabgrass, Large: 30
Large crabgrass; [6]
  Crabgrass, Large plant response rating: 90
Large crabgrass; [8]
  Crabgrass, Large plant response rating: 10
Large crabgrass; [7]
  Plant response rating, Crabgrass, Large: 30
Giant foxtail; [5]
  Plant response rating, Foxtail, Giant: 30
Giant foxtail; [6]
  Foxtail, Giant plant response rating: 100
Giant foxtail; [8]
  Foxtail, Giant plant response rating: 30
Giant foxtail; [7]
  Plant response rating, Foxtail, Giant: 20
lambsquarters; [5]
  Plant response rating, Lambsquarters: 90
lambsquarters; [6]
  Lambsquarters plant response rating: 100
lambsquarters; [8]
  Lambsquarters plant response rating: 80
lambsquarters; [7]
  Plant response rating, Lambsquarters: 90
morningglory; [5]
  Plant response rating, Morningglory: 70
morningglory; [6]
  Morningglory plant response rating: 40
morningglory; [8]
  Morningglory plant response rating: 70
morningglory; [7]
  Plant response rating, Morningglory: 10
pigweed; [5]
  Plant response rating, Pigweed: 100
pigweed; [6]
  Pigweed plant response rating: 100
pigweed; [8]
  Pigweed plant response rating: 80
pigweed; [7]
  Plant response rating, Pigweed: 100
blackgrass; Postemergence
  Plant response rating, Blackgrass: 30
blackgrass; postemergence, visual rating
  Blackgrass plant response rating: 20
wheat
  Plant response rating, Wheat: 30
wheat; postemergence, 125 g ai/ha, visual rating
  Wheat plant response rating: 30
Wild oat; Postemergence
  Plant response rating, Oat, Wild: 20
Wild oat; postemergence, visual rating
  Oat, Wild plant response rating: 20
rice
  Rice plant response rating: 60
[2]
  Sedge, Umbrella plant response rating: 80
ducksalad
  Ducksalad plant response rating: 70
Barnyardgrass [3]
  Barnyardgrass plant response rating: 70
